From PubChem BioAssay AID1259407 (Chemical Carcinogenesis Research Information System (CCRIS), 2018)
The source made the active and inactive calls. No rule for the calls is given here.

Test system: CCRIS mutagenicity, Ames/micronucleus/aberration tests
Assay: CCRIS mutagenicity studies
Conditions: Test System: AMES SALMONELLA TYPHIMURIUM

Measured: mutagenic call

Cc1cc(Cl)ccc1O
inactive: Strain/Indicator: TA97, Metabolic Activation: HAMSTER, LIVER, S-9, AROCLOR 1254 (10%), Method: PREINCUBATION inactive; negative | Strain/Indicator: TA97, Metabolic Activation: HAMSTER, LIVER, S-9, AROCLOR 1254 (30%), Method: PREINCUBATION inactive; negative | Strain/Indicator: TA97, Metabolic Activation: NONE, Method: PREINCUBATION inactive; negative | Strain/Indicator: TA97, Metabolic Activation: RAT, LIVER, S-9, AROCLOR 1254 (10%), Method: PREINCUBATION inactive; negative | Strain/Indicator: TA97, Metabolic Activation: RAT, LIVER, S-9, AROCLOR 1254 (30%), Method: PREINCUBATION inactive; negative | Strain/Indicator: TA98, Metabolic Activation: HAMSTER, LIVER, S-9, AROCLOR 1254 (10%), Method: PREINCUBATION inactive; negative | Strain/Indicator: TA98, Metabolic Activation: HAMSTER, LIVER, S-9, AROCLOR 1254 (30%), Method: PREINCUBATION inactive; negative | Strain/Indicator: TA98, Metabolic Activation: NONE, Method: PREINCUBATION inactive; negative | Strain/Indicator: TA98, Metabolic Activation: NONE, Method: STANDARD PLATE inactive; negative | Strain/Indicator: TA98, Metabolic Activation: RAT, LIVER, S-9, AROCLOR 1254 (10%), Method: PREINCUBATION inactive; negative | Strain/Indicator: TA98, Metabolic Activation: RAT, LIVER, S-9, AROCLOR 1254 (30%), Method: PREINCUBATION inactive; negative | Strain/Indicator: TA100, Metabolic Activation: HAMSTER, LIVER, S-9, AROCLOR 1254 (10%), Method: PREINCUBATION inactive; negative | Strain/Indicator: TA100, Metabolic Activation: HAMSTER, LIVER, S-9, AROCLOR 1254 (30%), Method: PREINCUBATION inactive; negative | Strain/Indicator: TA100, Metabolic Activation: NONE, Method: PREINCUBATION inactive; negative | Strain/Indicator: TA100, Metabolic Activation: NONE, Method: STANDARD PLATE inactive; negative | Strain/Indicator: TA100, Metabolic Activation: RAT, LIVER, S-9, AROCLOR 1254 (10%), Method: PREINCUBATION inactive; negative | Strain/Indicator: TA100, Metabolic Activation: RAT, LIVER, S-9, AROCLOR 1254 (30%), Method: PREINCUBATION inactive; negative | Strain/Indicator: TA104, Metabolic Activation: NONE, Method: STANDARD PLATE inactive; negative | Strain/Indicator: TA104, Metabolic Activation: RAT, LIVER, S-9, AROCLOR 1254, Method: STANDARD PLATE inactive; negative | Strain/Indicator: TA1535, Metabolic Activation: HAMSTER, LIVER, S-9, AROCLOR 1254 (10%), Method: PREINCUBATION inactive; negative | Strain/Indicator: TA1535, Metabolic Activation: HAMSTER, LIVER, S-9, AROCLOR 1254 (30%), Method: PREINCUBATION inactive; negative | Strain/Indicator: TA1535, Metabolic Activation: NONE, Method: PREINCUBATION inactive; negative | Strain/Indicator: TA1535, Metabolic Activation: RAT, LIVER, S-9, AROCLOR 1254 (10%), Method: PREINCUBATION inactive; negative | Strain/Indicator: TA1535, Metabolic Activation: RAT, LIVER, S-9, AROCLOR 1254 (30%), Method: PREINCUBATION inactive; negative | Strain/Indicator: TA1537, Metabolic Activation: HAMSTER, LIVER, S-9, AROCLOR 1254 (30%), Method: PREINCUBATION inactive; negative | Strain/Indicator: TA1537, Metabolic Activation: NONE, Method: PREINCUBATION inactive; negative | Strain/Indicator: TA1537, Metabolic Activation: RAT, LIVER, S-9, AROCLOR 1254 (30%), Method: PREINCUBATION inactive; negative
active: Strain/Indicator: TA97, Metabolic Activation: NONE, Method: STANDARD PLATE active; positive | Strain/Indicator: TA97, Metabolic Activation: RAT, LIVER, S-9, AROCLOR 1254, Method: STANDARD PLATE active; positive | Strain/Indicator: TA98, Metabolic Activation: RAT, LIVER, S-9, AROCLOR 1254, Method: STANDARD PLATE active; positive | Strain/Indicator: TA100, Metabolic Activation: RAT, LIVER, S-9, AROCLOR 1254, Method: STANDARD PLATE active; positive
